Data: patent US7586022B2, “Transgenic non-human animal model of lung tumorigenesis” (Trustees of Dartmouth College, priority 2006, dated 2009)
Entries after “also recorded” stand apart in the source; their conditions may differ.

What was measured:
exogenous cyclin E = exogenous cyclin E expression in retrovirally transduced BEAS-2B cells treated with agents; type: cell-based, human; details: treated for 24, 36 and 48 hours
Protocol: To determine whether other agents could modulate the expression of cyclin E, […], N-(4-hydroxyphenyl)retinamide (4HPR or fenretinide), or other non-classical retinoids for 24, 36 and 48 hours.

[1] = tested on: BEAS-2B human bronchial epithelial cells; details: cited from earlier work

Row | Compound | exogenous cyclin E expression (exogenous cyclin E) | NNK-mediated transformation ([1]; BEAS-2B cells exposed to NNK) | cyclin E expression ([1]; RA treatment)
1 | CC1(C)CC[C@]2(C(=O)O)CC[C@]3(C)[C@H](C(=O)C=C4[C@@]5(C)C=C(C#N)C(=O)C(C)(C)[C@@H]5CC[C@]43C)[C@@H]2C1 [CDDO, 2-cyano-3,12-dioxooleana-1,9-dien-28-oic acid] | potently repress exogenous cyclin E expression; also recorded: most potently decreased exogenous cyclin E expression, as early as 24 hours after treatment | – | –
2 | CC1=C(/C=C/C(C)=C/C=C/C(C)=C/C(=O)O)C(C)(C)CCC1 [RA, All-trans-retinoic acid] | – | antagonizes NNK-mediated transformation by causing G1 arrest | represses cyclin E expression via activation of a proteosomal degradation pathway
